Residues, ends and D or L forms follow the SMILES beside them. *: point of attachment. Cbz = O=C(OCc1ccccc1)*

The test system of data set [1] is CRTC2. Put plainly: CRTC2 protein levels in primary hepatocytes treated with proteasome or autophagy inhibitors (Western blot). The data set is classed as cell-based, mouse. Conditions: up to 16 h (MG132 20 μM, BZM 100 nM) or up to 8 h (bafilomycin 100 nM). On the procedure: FIGS. 7A-7J show Sam68 binds CRTC2 and inhibits CRTC2 ubiquitination and proteosomal degradation. In FIG. 7A, WT and Sam68^−/− mice were treated with glucagon (30 μg/kg) or PBS for 10 min; then, nuclear and cytoplasmic proteins were isolated from the liver tissue, and Sam68 protein expression was evaluated via Western blot. In FIG. 7B, CRTC2 was immunoprecipitated from WT and Sam68^−/− primary hepatocytes, and then CRTC2, Sam68, and CREB protein was detected in the precipitates via immunoblot. In FIG. 7C, 293T cells were co-transfected with plasmids coding for HA-tagged Sam68 and Flag-tagged CRTC2; 48 h later, CRTC2 was immunoprecipitated from the cells with anti-Flag, and Sam68 was detected in the precipitates by immunoblotting with anti-HA. In FIG. 7D, 293T cells were co-transfected with plasmids coding for Flag-tagged CRTC2 and HA-tagged WT Sam68 or HA-tagged mutations of Sam68 lacking the N-terminal domain (ΔN), the CK domain (ΔCK), proline motifs 3 and 4 (ΔP3-P4), or the C-terminal domain (ΔC); 48 h later, Sam68 and the Sam68 mutants were immunoprecipitated with anti-HA, and CRTC2 was detected in the precipitates by immunoblotting with anti-Flag. […] P62/SQSTM1 and LC3BI/II protein levels were also evaluated to indicate autophagic activity. […]
For orientation: Immunoblotting shows a protein as a band on a membrane.

For data set [2], the target named is T1, CRTC2 (CREB-regulated transcriptional coactivator 2), endogenous, in WT mouse primary hepatocytes (mouse, UniProt Q3U182 2-692).
T1 construct: Endogenous protein immunoprecipitated with the CRTC2 antibody (sc-271912); also called endogenous CRTC2
T1 sequence (looked up): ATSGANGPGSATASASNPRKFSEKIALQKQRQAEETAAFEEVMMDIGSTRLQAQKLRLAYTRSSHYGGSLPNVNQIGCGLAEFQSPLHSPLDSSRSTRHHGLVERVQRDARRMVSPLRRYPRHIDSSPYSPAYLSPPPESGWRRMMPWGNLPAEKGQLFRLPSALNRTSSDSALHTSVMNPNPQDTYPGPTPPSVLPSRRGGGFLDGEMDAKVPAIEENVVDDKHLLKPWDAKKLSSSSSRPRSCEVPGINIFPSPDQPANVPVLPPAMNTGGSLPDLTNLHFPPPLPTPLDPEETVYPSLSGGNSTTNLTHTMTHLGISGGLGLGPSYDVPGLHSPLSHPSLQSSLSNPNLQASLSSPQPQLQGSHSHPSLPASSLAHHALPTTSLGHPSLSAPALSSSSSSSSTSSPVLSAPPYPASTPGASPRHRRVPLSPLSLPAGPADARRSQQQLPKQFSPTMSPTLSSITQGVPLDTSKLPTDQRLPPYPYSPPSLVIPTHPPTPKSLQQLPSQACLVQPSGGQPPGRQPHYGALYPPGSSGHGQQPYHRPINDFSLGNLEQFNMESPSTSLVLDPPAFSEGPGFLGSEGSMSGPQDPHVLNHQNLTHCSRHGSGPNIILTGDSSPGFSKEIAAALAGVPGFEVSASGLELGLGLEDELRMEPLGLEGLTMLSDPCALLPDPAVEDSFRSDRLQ
In words: co-IP from mouse primary hepatocytes (FIG. 7B). On the procedure:
In FIG. 7A, WT and Sam68^{-/-} mice were treated with glucagon (30 μg/kg) or PBS for 10 min; then, nuclear and cytoplasmic proteins were isolated from the liver tissue, and Sam68 protein expression was evaluated via Western blot. In FIG. 7B, CRTC2 was immunoprecipitated from WT and Sam68^{-/-} primary hepatocytes, and then CRTC2, Sam68, and CREB protein was detected in the precipitates via immunoblot. […] In FIG. 7E, WT and Sam68^{-/-} primary hepatocytes were treated with cycloheximide (100 μM) for 0-8 h to block new protein synthesis; then, CRTC2 protein levels were evaluated by Western blot, quantified via Image J software, normalized to β-actin levels, and reported as the proportion of the amount present at 0 h. WT and Sam68^{-/-} primary hepatocytes were treated with cycloheximide and (FIG. 7E) MG132 (20 μM), (FIG. 7F) BZM (100 nM), or (FIG. 7G) bafilomycin (100 nM) for 0-16 (MG132, BZM) or 0-8 (bafilomycin) and CRTC2 protein levels were evaluated by Western blot, quantified via Image J software, normalized to β-actin levels, and reported as the proportion of the amount present in WT cells at 0 h. P62/SQSTM1 and LC3BI/II protein levels were also evaluated to indicate autophagic activity. […]

Regarding `CC(C)C[C@@H](C=O)NC(=O)[C@H](CC(C)C)NC(=O)[C@H](CC(C)C)NC(=O)OCc1ccccc1` [MG132] (Cbz-Leu-Leu-Leu-aldehyde), the “CRTC2 protein levels in Sam68−/− hepatocytes during treatment” value in data set [1] is listed as “approximately doubled”.
As to bafilomycin, the “CRTC2 protein levels in Sam68−/− hepatocytes during treatment” value in data set [1] is “unchanged”.

B1: Sam68 (Src-associated-in-mitosis-of-68kDa), endogenous, in WT mouse primary hepatocytes (other, UniProt Q60749 1-443, looked up)
chain: MQRRDDPASRLTRSSGRSCSKDPSGAHPSVRLTPSRPSPLPHRPRGGGGGPRGGARASPATQPPPLLPPSTPGPDATVVGSAPTPLLPPSATAAVKMEPENKYLPELMAEKDSLDPSFTHAMQLLSVEIEKIQKGESKKDDEENYLDLFSHKNMKLKERVLIPVKQYPKFNFVGKILGPQGNTIKRLQEETGAKISVLGKGSMRDKAKEEELRKGGDPKYAHLNMDLHVFIEVFGPPCEAYALMAHAMEEVKKFLVPDMMDDICQEQFLELSYLNGVPEPSRGRGVSVRGRGAAPPPPPVPRGRGVGPPRGALVRGTPVRGSITRGATVTRGVPPPPTVRGAPTPRARTAGIQRIPLPPTPAPETYEDYGYDDTYAEQSYEGYEGYYSQSQGESEYYDYGHGELQDSYEAYGQDDWNGTRPSLKAPPARPVKGAYREHPYGRY
notes: Endogenous protein co-immunoprecipitated from mouse primary hepatocytes; also called KHDRBS1
B1: the binding result in data set [2] is on record as “binds”.
